Data reported in patent EP1005460B1, “PROSTAGLANDIN ENDOPEROXIDE H SYNTHASE BIOSYNTHESIS INHIBITORS” (ABBOTT LABORATORIES, priority 1997, dated 1999).
Where two headings read alike, the source gives them in different places.

How the values were obtained:
[1] = target: T1, Cox-1 (Homo sapiens, UniProt P23219); test: Recombinant human PGHS-1 (Cox-1) enzyme assay, PGE2 by EIA; format: biochemical; design: made in house; host or cells: baculovirus/Sf9 insect cells (microsomes); settings: microsomes, 60 min preincubation, 10 µM arachidonic acid, read-out: RHUCX1 Cox-1 percent inhibition
T1 sequence (P23219 24-599): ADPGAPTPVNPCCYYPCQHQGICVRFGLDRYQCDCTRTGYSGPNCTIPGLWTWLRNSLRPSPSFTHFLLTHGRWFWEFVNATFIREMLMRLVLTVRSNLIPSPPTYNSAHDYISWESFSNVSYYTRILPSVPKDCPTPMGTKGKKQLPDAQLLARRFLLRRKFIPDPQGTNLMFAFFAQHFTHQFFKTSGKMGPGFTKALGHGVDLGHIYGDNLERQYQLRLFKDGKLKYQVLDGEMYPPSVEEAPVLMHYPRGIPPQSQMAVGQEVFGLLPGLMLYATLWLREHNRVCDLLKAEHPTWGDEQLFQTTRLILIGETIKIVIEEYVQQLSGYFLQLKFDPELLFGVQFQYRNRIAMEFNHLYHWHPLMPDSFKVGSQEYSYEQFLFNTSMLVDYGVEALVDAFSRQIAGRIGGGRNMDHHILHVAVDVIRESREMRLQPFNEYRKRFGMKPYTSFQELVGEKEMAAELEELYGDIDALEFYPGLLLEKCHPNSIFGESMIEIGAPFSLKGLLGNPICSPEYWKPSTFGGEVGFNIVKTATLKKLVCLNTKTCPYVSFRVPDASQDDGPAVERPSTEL
Description: (§1) To compare the mean responses of the treatment groups, analysis of variance was applied. Percent inhibition values were determined by comparing the individual treatment mean values to the mean of the control group. Linear regression was used to estimate IC50's/ED50's in appropriate assays.
(§2) EIA reagents for prostaglandin determination were purchased from Perseptive Diagnostics, (Cambridge, MA). PGE2 levels in lavage fluids were determined after the samples were dried under nitrogen and reconstituted with assay buffer. PGE2 levels in enzyme assays or cell culture media were measured against standards prepared in the same milieu. The immunoassays were conducted as recommended by the manufacturer. The EIA was conducted in 96 well microtiter plates (Nunc Roskilde, Denmark) and optical density was measured using a microplate reader (Vmax, Molecular Devices Corp., Menlo Park, CA).
(§3) Inhibition of prostaglandin biosynthesis in vitro was evaluated using recombinant human Cox-1 (r-hu Cox1) and Cox-2 (r-hu Cox2) enzyme assays. […] The reaction was allowed to run for 2.5 minutes at room temperature prior to quenching with HCl and neutralization with NaOH. PGE2 production in the presence and absence of the drug was determined by EIA analysis. The EIA was conducted in 96 well microtiter plates (Nunc Roskilde, Denmark) and optical density was measured using a microplate reader (Vmax, Molecular Devices Corp., Menlo Park, CA). EIA reagents for prostaglandin determination were purchased from Perseptive Diagnostics (Cambridge, MA). PGE2 levels were measured against standards prepared in the same milieu. The immunoassays were conducted as recommended by the manufacturer. The compounds are designated by the Example Number. […] Values for Cox-2 inhibition that are parenthetical indicate IC50 values.

[2] = target: T2, Cox-2 (Homo sapiens, UniProt P35354); test: Recombinant human PGHS-2 (Cox-2) enzyme assay, PGE2 by EIA; format: biochemical; design: made in house; host or cells: baculovirus/Sf9 insect cells (microsomes); settings: microsomes, 60 min preincubation, 10 µM arachidonic acid; for inhibition at 0.1 µM: at 100 nM; for inhibition at 0.1 µM / inhibition at 1 µM: read-out: RHUCX2 Cox-2 percent inhibition; for IC50: read-out: RHUCX2 Cox-2 IC50 (parenthetical values); for inhibition at 1 µM: at 1000 nM
T2 sequence (P35354 18-604): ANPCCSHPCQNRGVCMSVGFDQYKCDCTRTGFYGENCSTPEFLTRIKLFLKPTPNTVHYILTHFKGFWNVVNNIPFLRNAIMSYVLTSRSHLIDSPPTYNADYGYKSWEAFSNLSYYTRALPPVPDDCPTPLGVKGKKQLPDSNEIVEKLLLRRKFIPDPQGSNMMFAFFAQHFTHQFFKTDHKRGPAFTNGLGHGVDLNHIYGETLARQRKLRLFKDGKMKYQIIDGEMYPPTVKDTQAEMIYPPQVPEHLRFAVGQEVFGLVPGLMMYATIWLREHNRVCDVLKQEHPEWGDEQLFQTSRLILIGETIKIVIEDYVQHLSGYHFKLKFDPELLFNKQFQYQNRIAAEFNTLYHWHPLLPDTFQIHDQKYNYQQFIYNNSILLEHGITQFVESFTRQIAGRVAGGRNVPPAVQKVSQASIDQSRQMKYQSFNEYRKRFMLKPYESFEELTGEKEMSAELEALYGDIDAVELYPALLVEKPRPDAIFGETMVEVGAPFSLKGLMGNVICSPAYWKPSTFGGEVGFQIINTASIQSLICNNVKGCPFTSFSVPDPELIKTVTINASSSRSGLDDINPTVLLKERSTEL
Description: as §1, §2, §3

[3] = tested on: prostaglandin biosynthesis; test: Rat carrageenan pleural inflammation model (CIP); format: in vivo, Sprague-Dawley rats; settings: 10 milligrams per kilogram body weight, oral, 30 minutes before intrapleural carrageenan; lavage after four hours
Description: as §1, §2
Pleural inflammation was induced in male adrenalectomized Sprague-Dawley rats following the method of Vinegar et al., Fed. Proc. 1976, 35, 2447-2456. Animals were orally dosed with experimental compounds, in 0.2% HPMC, 30 minutes prior to the intrapleural injection of 2% lambda carrageenan (Sigma Chemical Co., St. Louis MO). Four hours later the animals were euthanized and the pleural cavities lavaged with ice cold saline. […] Eicosanoids were determined by EIA as described above. […]

[4] = target: T1, Cox-1; test: U937 cell assay, Cox-1 activity by EIA; format: cell-based; design: host or cells: U937 cells; settings: U937 cells
Description: as §1, §2
(§4) Human amnionic WISH cells were grown to 80% confluence in 48 well plates. Following removal of the growth medium and two washings with Gey's Balanced Salt Solution, 5 ng IL-1 β/ml (UBI, Lake Placid, NY) was added to the cells with or without test compound in DMSO (0.01% v/v) in Neuman-Tytell Serumless Medium (GIBCO, Grand Island, NY). Following an 18 hour incubation to allow for the maximal induction of PGHS-2, the conditioned medium was removed and assayed for PGE2 activity by EIA analysis as described above.
(§5) U937 (ATCC, Rockville, MD) cells were grown in a similar fashion to the WISH cells. After incubation, the conditioned medium was removed and assayed for Cox-1 activity by EIA analysis as described above. U937 values indicate percent inhibition at the particular micromolar dose level while parenthetical values indicate IC50 values. Wish cell values indicate Cox-2 pecent inhibition at the particular micromolar dose level.

[5] = target: T2, Cox-2; test: IL-1β induced PGE2 production in WISH cells; format: cell-based; design: endogenous in cells; host or cells: human amnionic WISH cells induced with IL-1β
Description: as §1, §2, §4
as §5, with “Wish cell values indicate Cox-2 pecent inhibition at the particular micromolar dose level.” left out

[6] = U-937, read-out: U937 percent inhibition

Compound	inhibition at 100 µM [1] [%]	inhibition at 0.1 µM [2] [%]	inhibition at 10 µM [4, 6] [%]	IC50 [2] [nM]	other results
CS(=O)(=O)c1ccc(-c2cc(=O)n(C3CCCC3)nc2-c2ccc(F)cc2)cc1 [Example 25, 2-Cyclopentyl-5-(4-methylsulfonylphenyl)-6-(4-fluorophenyl)-3(2H)-pyridazinone]	7	42			
CS(=O)(=O)c1ccc(-c2cc(=O)n(CC3CC3)nc2-c2ccc(F)cc2)cc1 [Example 23, 2-(Cyclopropylmethyl)-5-(4-methylsulfonylphenyl)-6-(4-fluorophenyl)-3(2H)-pyridazinone]	24		30	250	CIP Inh @10mpk [3]: 41%; Wish Cox-2 percent inhibition [5]: 62 @ 1%
CS(=O)(=O)c1ccc(-c2cc(=O)n(CC3CCCC3)nc2-c2ccc(F)cc2)cc1 [Example 24, 2-Cyclopentylmethyl-5-(4-methylsulfonylphenyl)-6-(4-fluorophenyl)-3(2H)-pyridazinone]	23	87			
CC(c1ccc(F)cc1)n1nc(-c2ccc(F)cc2)c(-c2ccc(S(C)(=O)=O)cc2)cc1=O (stereo not drawn) [Example 12, 2-(4-Fluoro-α-methylbenzyl)-5-(4-methylsulfonylphenyl)-6-(4-fluorophenyl)-3(2H)-pyridazinone]	8			740	
CCCCn1nc(-c2ccc(F)cc2)c(-c2ccc(S(C)(=O)=O)cc2)cc1=O [Example 11, 2-(n-Butyl)-5-(4-methylsulfonylphenyl)-6-(4-fluorophenyl)-3(2H)-pyridazinone]	19	51			
CS(=O)(=O)c1ccc(-c2cc(=O)n(CC3CCCCC3)nc2-c2ccc(F)cc2)cc1 [Example 15, 2-Cyclohexylmethyl-5-(4-methylsulfonylphenyl)-6-(4-fluorophenyl)-3(2H)-pyridazinone]	52			5	inhibition at 0.01 µM ([4]; U-937, at 0.01 µM, read-out: U937 percent inhibition): 33%; Wish Cox-2 percent inhibition ([5]; at 0.001 (head:)): 43 @ 0.001%
CS(=O)(=O)c1ccc(-c2cc(=O)n(CC3CCC3)nc2-c2ccc(F)cc2)cc1 [Example 20, 2-(Cyclobutylmethyl)-5-(4-methylsulfonylphenyl)-6-(4-fluorophenyl)-3(2H)-pyridazinone]			60		
CC(C)=CCn1nc(-c2ccc(F)cc2)c(-c2ccc(S(C)(=O)=O)cc2)cc1=O [Example 21, 2-(3-Methylbuten-2-yl)-5-(4-methylsulfonylphenyl)-6-(4-fluorophenyl)-3(2H)-pyridazinone]	62	92	80		
CS(=O)(=O)c1ccc(-c2cc(=O)n(CC(F)(F)F)nc2-c2ccc(F)cc2)cc1 [Example 22, 2-(2,2,2-Trifluoroethyl)-5-(4-methylsulfonylphenyl)-6-(4-fluorophenyl)-3(2H)-pyridazinone]	0				inhibition at 1 µM [2]: 46%
C#CCn1nc(-c2ccc(F)cc2)c(-c2ccc(S(C)(=O)=O)cc2)cc1=O [Example 17, 2-Propargyl-5-(4-methylsulfonylphenyl)-6-(4-fluorophenyl)-3(2H)-pyridazinone]	0		41	850	Wish Cox-2 percent inhibition [5]: 54 @ 1%
CC#CCn1nc(-c2ccc(F)cc2)c(-c2ccc(S(C)(=O)=O)cc2)cc1=O [Example 19, 2-(2-Butyn-1-yl)-5-(4-methylsulfonylphenyl)-6-(4-fluorophenyl)-3(2H)-pyridazinone]	3				inhibition at 1 µM [2]: 66%
CS(=O)(=O)c1ccc(-c2cc(=O)n(C3CCCCC3)nc2-c2ccc(F)cc2)cc1 [Example 18, 2-Cyclohexyl-5-(4-methylsulfonylphenyl)-6-(4-fluorophenyl)-3(2H)-pyridazinone]	16	49			
CS(=O)(=O)c1ccc(-c2cc(=O)n(Cc3ccc(F)cc3)nc2-c2ccc(F)cc2)cc1 [Example 10, 2-(4-Fluorobenzyl)-5-(4-methylsulfonylphenyl)-6-(4-fluorophenyl)-3(2H)-pyridazinone]	2	65	62		
CCCCCn1nc(-c2ccc(F)cc2)c(-c2ccc(S(C)(=O)=O)cc2)cc1=O [Example 14, 2-(n-Pentyl)-5-(4-methylsulfonylphenyl)-6-(4-fluorophenyl)-3(2H)-pyridazinone]	23	66			inhibition at 1 µM ([4]; U-937, at 1 µM, read-out: U937 percent inhibition): 42%; Wish Cox-2 percent inhibition ([5]; at 0.00001 (head:)): 34 @ 0.00001%
CS(=O)(=O)c1ccc(-c2cc(=O)n(Cc3ccccc3)nc2-c2ccc(F)cc2)cc1 [Example 7, 2-Benzyl-5-(4-methylsulfonylphenyl)-6-(4-fluorophenyl)-3(2H)-pyridazinone]	4			20	CIP Inh @10mpk [3]: 22%; IC50 ([4]; read-out: U937 IC50 (parenthetical values)): 870 nM
